Measured values reported in patent publication US20100297675A1, “SUBSTRATE AND METHOD FOR CULTURING BREAST CELLS” (priority 2008, published 2010).

Experiments:
[1] = tested on: MCF-7 malignant breast cells; assay: MCF-7 malignant cells cultured on 2D TCT culture surface, treated with inhibitor, confocal fluorescence imaging; format: cell-based; conditions: MCF-7 on TCT 2D surface; 4 μM on alternate days for 15 days; E-cadherin/DAPI stain; FIGS. 11A-C
Procedure: Differences in cellular morphology often contribute to differences in cellular function. To understand the difference of cellular functions between breast cells cultured in a porous substrate and on a 2D culture surface, 10,000 MCF-7 malignant cell were seeded and cultured in porous PDMS (as described in Example 1) and a TCT culture surface (tissue culture treated polystyrene, “TCT”, Coming Inc) under the same conditions. The cells were treated with 4 μM of PD98059 (MAPK inhibitor) and 4 μM of LY294002 (PI3K inhibitor) on alternate days for 15 days. […] In FIGS. 11A-C, the cells were stained for E-cadherin and counterstained with a DAPI nuclei stain. In FIG. 11A, untreated cells are shown at 14 days of culture. In FIG. 11B, cells treated with PD98059 are shown at 14 days of culture. In FIG. 11C, cells treated with LY294002 are shown at 14 days of culture. The green (E-cadherin) and blue (nuclei) stains cannot be seen in the black and white reproductions presented herein.

[2] = tested on: MCF-7 malignant breast cells; assay: MCF-7 malignant cells cultured in porous PDMS substrate, treated with inhibitor, confocal fluorescence imaging; format: cell-based; conditions: MCF-7 in porous PDMS, 4 μM on alternate days for 15 days, F-actin/DAPI stain
Text: Porous polydimethylsiloxane (PDMS) substrates were generated by mixing a PDMS pre-polymer and a curing agent using the Sylgard 182 kit available from Dow Corning in a ratio of 10 to 1. The mixture was closely packed with sugar crystals of size ranging from 212-250 micrometers, which was then filled in a mold and cured at 100 degrees for one hour. The sugar in the cured polymer was washed out in an ultrasonic bath, forming porous PDMS substrates. The resulting porous PDMS was released from the mold and assembled into multi-well plate for cell culture. Malignant breast cells MCF-7 were seeded in wells having the porous PDMS substrates described in Example 1. 10,000 cells were seeded and cultured in EMEM cell culture medium with 10% Fetal Bovine Serum, 5% pen/strep, and 10 μg/ml of insulin. The medium was changed on alternate days. Following two weeks of culture, the cells were stained with Rhodamine phalloidin (F-actin staining) and DAPI nuclei counter stain and imaged with confocal fluorescence microscope as shown in FIG. 9. […] Differences in cellular morphology often contribute to differences in cellular function. […]

breast cancer cells = conditions: Matrigel 3D culture system; reported; cited from earlier work

Q: What does the source list for `COc1cccc(-c2cc(=O)c3ccccc3o2)c1N` [PD98059]?
A: noticeable difference for the cells cultured on TCT surface (reversion of malignant phenotype or other change) [1]: failed to induce noticeable difference; colony size ([2]; FIGS. 12A-C): significantly reduced the colony size; reversion of malignant phenotype (mass structure to acini structure) ([2]; FIGS. 13A-C): reversed malignant phenotype from mass structure to normal acini structure; reversal of malignant behaviors of breast cancer cells (breast cancer cells): reverse malignant behaviors of breast cancer cells to certain degrees
